From patent US20250223259A1, “PROTEASE INHIBITORS FOR TREATING OR PREVENTING CORONAVIRUS INFECTION” (Merck Sharp & Dohme LLC, priority 2022, published 2025)
pIC50: −log10 of the molar value.

Each compound was assayed against SARS2 coronavirus 3CL protease (Severe acute respiratory syndrome coronavirus 2 (2019-nCoV) (SARS-CoV-2), UniProt P0DTD1) (assay: SARS2 Coronavirus 3CL Protease Assay (FRET)). Settings: SARS2 3CLPro FRET assay; 5 nM enzyme, 30 min pre-incubation with compound, 15 uM peptide substrate, 4 h room temperature.
Type: biochemical
`COC(=O)N[C@H](C(=O)N1CCC2(CCC2)CC1C(=O)N[C@@H](CCC(C)(F)F)C(=O)C(=O)NC1CC1)C(C)(C)C` (single isomer, unassigned) [Example 41, Methyl ((S)-1-((R or S)-(6-(((S)-1-(cyclopropylamino)-6,6-difluoro-1,2-dioxoheptan-3-yl)carbamoyl)-7-azaspiro[3.5]nonan-7-yl)-3,3-dimethyl-1-oxobutan-2-yl)carbamate] gave a pIC50 of 7.89. `COC(=O)N[C@H](C(=O)N1CC[C@]2(C[C@H]1C(=O)N[C@@H](CCC(C)(F)F)C(=O)C(=O)NC1CC1)CC2(F)F)C(C)(C)C` [Example 94, methyl ((S)-1-((3S,5S)-5-(((S)-1-(cyclopropylamino)-6,6-difluoro-1,2-dioxoheptan-3-yl)carbamoyl)-1,1-difluoro-6-azaspiro[2.5]octan-6-yl)-3,3-dimethyl-1-oxobutan-2-yl)carbamate] showed a pIC50 of 8.05. `COC(=O)N[C@H](C(=O)N1CC2(CCCCC2)C[C@H]1C(=O)N[C@@H](CCC(C)(F)F)C(=O)C(=O)NCC(C)C)C(C)(C)C` [Example 9, Methyl ((S)-1-((S)-3-(((S)-6,6-difluoro-1-(isobutylamino)-1,2-dioxoheptan-3-yl)carbamoyl)-2-azaspiro[4.5]decan-2-yl)-3,3-dimethyl-1-oxobutan-2-yl)carbamate] was tested, and the pIC50 was 7.68. In the case of `CNC(=O)C(=O)[C@H](CCC(C)(F)F)NC(=O)C1C2CC(F)(F)CC2CN1C(=O)[C@@H](NC(=O)OC)C(C)(C)C` (single isomer, unassigned) [Example 105, methyl ((S)-1-((1S,3aR,6aS or 1R,3aS,6aR or 1S,3aS,6aR or 1R,3aR,6aS)-1-(((S)-6,6-difluoro-1-(methylamino)-1,2-dioxoheptan-3-yl)carbamoyl)-5,5-difluorohexahydrocyclopenta[c]pyrrol-2(1H)-yl)-3,3-dimethyl-1-oxobutan-2-yl)carbamate], the pIC50 was 7.96. For `CNC(=O)C(=O)[C@H](CCC(C)(F)F)NC(=O)[C@@H]1[C@H]2CCC[C@H]2CN1C(=O)C(NC(=O)OC)C1CC(F)(F)C1` (single isomer, unassigned) [Example 116, methyl ((S or R)-2-((1S,3aR,6aS)-1-(((S)-6,6-difluoro-1-(methylamino)-1,2-dioxoheptan-3-yl)carbamoyl)hexahydrocyclopenta[c]pyrrol-2(1H)-yl)-1-(3,3-difluorocyclobutyl)-2-oxoethyl)carbamate], the pIC50 was 7.80. For `COCC(NC(=O)OC)C(=O)N1CC2(CCCCC2)C[C@H]1C(=O)N[C@@H](CCC(C)(F)F)C(=O)C(=O)NC1CC1` (single isomer, unassigned) [Example 11, Methyl ((R or S)-1-((S)-3-(((S)-1-(cyclopropylamino)-6,6-difluoro-1,2-dioxoheptan-3-yl)carbamoyl)-2-azaspiro[4.5]decan-2-yl)-3-methoxy-1-oxopropan-2-yl)carbamate], the pIC50 was 7.40. With `COC(=O)N[C@H](C(=O)N1CC2(CCCCC2)C[C@H]1C(=O)N[C@@H](CCC(C)(F)F)C(=O)C(=O)NC1CC1)C1CCOCC1` [Example 74, Methyl ((S)-2-((S)-3-(((S)-1-(cyclopropylamino)-6,6-difluoro-1,2-dioxoheptan-3-yl)carbamoyl)-2-azaspiro[4.5]decan-2-yl)-2-ox0-1-(tetrahydro-2H-pyran-4-yl)ethyl)carbamate] the pIC50 was 7.16. `COC(=O)N[C@H](C(=O)N1CC2CC2C[C@H]1C(=O)N[C@@H](CCC(C)(F)F)C(=O)C(=O)NC1CC1)C(C)(C)C` (single isomer, unassigned) [Example 84, methyl ((S)-1-((1S,4S,6S or 1R,4S,6R)-4-(((S)-1-(cyclopropylamino)-6,6-difluoro-1,2-dioxoheptan-3-yl)carbamoyl)-3-azabicyclo[4.1.0]heptan-3-yl)-3,3-dimethyl-1-oxobutan-2-yl)carbamate] gave a pIC50 of 7.02. `CNC(=O)C(=O)[C@H](CCC(C)(F)F)NC(=O)[C@@H]1[C@@H]2[C@H](CN1C(=O)[C@@H](NC(=O)OC)C(C)(C)C)CC2(F)F` [Example 92, methyl ((S)-1-((1S,2S,5R)-2-(((S)-6,6-difluoro-1-(methylamino)-1,2-dioxoheptan-3-yl)carbamoyl)-7,7-difluoro-3-azabicyclo[3.2.0]heptan-3-yl)-3,3-dimethyl-1-oxobutan-2-yl)carbamate] showed a pIC50 of 7.54. With `COC(=O)N[C@H](C(=O)N1CCCCC1C(=O)N[C@@H](CCC(C)(F)F)C(=O)C(=O)NC1CC1)C(C)(C)C` (single isomer, unassigned) [Example 55, Methyl ((S)-1-((S or R)-2-(((S)-1-(cyclopropylamino)-6,6-difluoro-1,2-dioxoheptan-3-yl)carbamoyl)piperidin-1-yl)-3,3-dimethyl-1-oxobutan-2-yl)carbamate: methyl ((S)-1-((R or S)-2-(((S)-1-(cyclopropylamino)-6,6-difluoro-1,2-dioxoheptan-3-yl)carbamoyl)piperidin-1-yl)-3,3-dimethyl-1-oxobutan-2-yl)carbamate] the pIC50 was 6.62. For `COC(=O)N[C@H](C(=O)N1CC(C)(C)CCC1C(=O)N[C@@H](CCC(C)(F)F)C(=O)C(=O)NC1CC1)C(C)(C)C` (single isomer, unassigned) [Example 52, Methyl ((S)-1-(R or S)-2-(((S)-1-(cyclopropylamino)-6,6-difluoro-1,2-dioxoheptan-3-yl)carbamoyl)-5,5-dimethylpiperidin-1-yl)-3,3-dimethyl-1-oxobutan-2-yl)carbamate], the pIC50 was 6.84. `CNC(=O)C(=O)[C@H](CCC(C)(F)F)NC(=O)[C@@H]1[C@@H]2[C@H](CN1C(=O)[C@@H](NC(=O)OC)C(C)(C)C)C21CCOCC1` [Example 40, Methyl ((S)-1-((1R,2S,5S)-2-(((S)-6,6-difluoro-1-(methylamino)-1,2-dioxoheptan-3-yl)carbamoyl)tetrahydro-3-azaspiro[bicyclo[3.1.0]hexane-6,4′-pyran]-3-yl)-3,3-dimethyl-1-oxobutan-2-yl)carbamate] showed a pIC50 of 7.92. Work on `COC(=O)N[C@H](C(=O)N1CC2(CCCCC2)C[C@H]1C(=O)N[C@@H](CCC(C)(F)F)C(=O)C(=O)NCCN1CCOCC1)C(C)(C)C` [Example 17, Methyl ((S)-1-((S)-3-(((S)-6,6-difluoro-1-((2-morpholinoethyl)amino)-1,2-dioxoheptan-3-yl)carbamoyl)-2-azaspiro[4.5]decan-2-yl)-3,3-dimethyl-1-oxobutan-2-yl)carbamate] yielded a pIC50 of 6.86. `COC(=O)N[C@H](C(=O)N1CC(C)CCC1C(=O)N[C@@H](CCC(C)(F)F)C(=O)C(=O)NC1CC1)C(C)(C)C` (single isomer, unassigned) [Example 30, Methyl ((S)-1-(2(R or S), 5(R or S)-(((S)-1-(cyclopropylamino)-6,6-difluoro-1,2-dioxoheptan-3-yl)carbamoyl)-5-methylpiperidin-1-yl)-3,3-dimethyl-1-oxobutan-2-yl)carbamate] was tested, and the pIC50 was 7.40. With `COC(=O)N[C@H](C(=O)N1CC2(CCCCC2)C[C@H]1C(=O)N[C@@H](CCC(C)(F)F)C(=O)C(=O)NC1CCCCC1)C(C)(C)C` [Example 16, Methyl ((S)-1-((S)-3-(((S)-1-(cyclohexylamino)-6,6-difluoro-1,2-dioxoheptan-3-yl)carbamoyl)-2-azaspiro[4.5]decan-2-yl)-3,3-dimethyl-1-oxobutan-2-yl)carbamate] the pIC50 was 6.87. Compound `CNC(=O)N[C@H](C(=O)N1CC2(CCCCC2)C[C@H]1C(=O)N[C@@H](CCC(C)(F)F)C(=O)C(=O)NC1CC1)C(C)(C)C` [Example 75, (S)-N-((S)-1-(cyclopropylamino)-6,6-difluoro-1,2-dioxoheptan-3-yl)-2-((S)-3,3-dimethyl-2-(3-methylureido)butanoyl)-2-azaspiro[4.5]decane-3-carboxamide] has a pIC50 of 7.09. With `COC(=O)N[C@@H](Cc1ccccc1)C(=O)N1CC[C@@H](C(F)(F)F)C[C@H]1C(=O)N[C@@H](CCC(C)(F)F)C(=O)C(=O)NC1CC1` [Example 68, Methyl ((S)-1-((2S,4R)-2-(((S)-1-(cyclopropylamino)-6,6-difluoro-1,2-dioxoheptan-3-yl)carbamoyl)-4-(trifluoromethyl)piperidin-1-yl)-1-oxo-3-phenylpropan-2-yl)carbamate] the pIC50 was 7.55. Compound `CNC(=O)C(=O)[C@H](CCC(C)(F)F)NC(=O)[C@@H]1CC2(CN1C(=O)[C@@H](NC(=O)OC)C(C)(C)C)CC2(F)F` (single isomer, unassigned) [Example 93, methyl ((S)-1-((3(S or R),6S)-6-(((S)-6,6-difluoro-1-(methylamino)-1,2-dioxoheptan-3-yl)carbamoyl)-1,1-difluoro-5-azaspiro[2.4]heptan-5-yl)-3,3-dimethyl-1-oxobutan-2-yl)carbamate] has a pIC50 of 7.55. With `COC(=O)N[C@H](C(=O)N1CC2(CCCC2)C[C@H]1C(=O)N[C@@H](CCC(C)(F)F)C(=O)C(=O)NC1CC1)C(C)(C)C` [Example 10, Methyl ((S)-1-((S)-3-(((S)-1-(cyclopropylamino)-6,6-difluoro-1,2-dioxoheptan-3-yl)carbamoyl)-2-azaspiro[4.4]nonan-2-yl)-3,3-dimethyl-1-oxobutan-2-yl)carbamate] the pIC50 was 7.59. `COC(=O)N[C@H](C(=O)N1CC(C(F)(F)F)CCC1C(=O)N[C@@H](CCC(C)(F)F)C(=O)C(=O)NC1CC1)C(C)(C)C` (single isomer, unassigned) [Example 82, methyl ((S)-1-((2S,5S or 2R,5R)-2-(((S)-1-(cyclopropylamino)-6,6-difluoro-1,2-dioxoheptan-3-yl)carbamoyl)-5-(trifluoromethyl)piperidin-1-yl)-3,3-dimethyl-1-oxobutan-2-yl)carbamate] gave a pIC50 of 7.29. `COC(=O)N[C@H](C(=O)N1C[C@H](OC(F)(F)F)C(C)(C)[C@H]1C(=O)N[C@@H](CCC(C)(F)F)C(=O)C(=O)NC1CC1)C(C)(C)C` [Example 48, Methyl ((S)-1-((2S,4R)-2-(((S)-1-(cyclopropylamino)-6,6-difluoro-1,2-dioxoheptan-3-yl)carbamoyl)-3,3-dimethyl-4-(trifluoromethoxy)pyrrolidin-1-yl)-3,3-dimethyl-1-oxobutan-2-yl)carbamate] gave a pIC50 of 7.35.
